Laboratory results reported in patent US20220409657A1, “INSTRUCTIONS FOR COMPOSITION AND SENSITIVITY” (Azura Ophthalmics Ltd., priority 2020, published 2022).
Where two headings read alike, the source gives them in different places.

Key:
[1] = system: human subjects; settings: in vivo
Text: An additional 2 or 3 additional cases of adverse effects. Of these subjects, 2 had keratitis following the 1st in-office application and another patient deteriorate following the 2nd in-office application although the subject kept on another dose or two at home before coming with pain to be examined (a typical scenario when keratitis evolves).

[2] = system: seborrheic blepharitis; settings: cited from earlier work
[3] = system: meibomian gland disorder (MGD) patients; settings: twice a week, 3 month time point
Method: The drug was applied twice a week and final evaluation was done at the 3 month time point in which the primary outcome of Meibomian Gland Score (MGS) was assessed.

[4] = system: human subject
Method: In most instances, the treatment is applied on a biweekly basis, however some patients move to daily application based on prespecified protocol criteria. Because the ointment-based composition is known to mix with tear fluid and cause blurry vision, individuals in this study are advised to apply the treatment prior to bed so as to avoid risks associated with reduced vision acuity. […] The in-office applications are conducted at specific, pre-determined time points. In these instances, the treatment is not applied before bed but rather is performed during daylight hours.

[5] = system: study patients; settings: in vivo
Method: In a first study patients were instructed to dose in both the evening, between visits, and in the daytime during regular scheduled clinic visits as part of the study protocol. Study patients received a 2-week run-in on a placebo which was administered twice weekly for a period of two weeks.
Adverse events comprise a feeling of grittiness, foreign body feeling, stinging, blurry vision, redness, tired eyes, water eyes, irritation, lid abnormalities, burning, corneal abrasion, photophobia, staining, or dry eye disorder (DED).

[6] = in vivo; cited from earlier work
[7] = system: rabbits; settings: dose about 4 mg, concentration up to 2.5 wt. %, ointment over the eyelid margin
[8] = system: human subjects
Text: In a clinical study three different concentrations were used; 0.1 wt. %, (10 subjects) 0.5 wt. % (12 subjects) and 1 wt. % (26 subjects).

[9] = system: animals; settings: in vivo; cited from earlier work

## selenium disulfide [SeS2]
[1]
  additional cases of adverse effects: 2-3 cases
  subjects with keratitis following the 1st in-office application: 2 subjects
[2]; SeS2 0.5%
  treatment of seborrheic blepharitis: effective
[2]; human, in vivo
  adverse events following topical ocular use: superficial punctate keratitis and conjunctivitis
[3]; 9 patients using finger
  average change from baseline in Meibomian Gland Score (MGS): 10 (+/− 8.2)
[3]; 13 patients using applicator
  average change from baseline in Meibomian Gland Score (MGS): 2.3 (+/− 4.4)
[4]; 0.1 wt. % concentration
  keratitis: Keratitis is not observed
[4]; 0.5 wt. % concentration
  keratitis: Keratitis is not observed
[4]; 1 wt. % cohort, following in-office assessment
  patients noting symptoms of keratitis: four
[4]; 400 or more bedtime applications
  bedtime applications resulting in keratitis: none
[4]; at least one patient, one month of treatment, 1 wt. %
  health outcomes by OSDI, VAS and SPEED: improved health outcomes
[4]; one patient, 1 wt. %
  time from in-office assessment to significant pain near the treated area: ≤ 7 h
[5]
  reduction in the incidence of ocular adverse events: 75%
  reduction of discontinuations from adverse events (DC for AE): at least 50%
  reduction of rates of ocular adverse events (ocular AE): at least 50%
[6]
  contact dermatitis: can produce contact dermatitis
  contact or photo-contact dermatitis in tinea versicolor treatment: None of the investigators encountered a single case
  hair loss after shampooing: diffuse hair loss
  skin reaction after shampoo applied three consecutive nights: developed circumscribed eczematous plaques
[7]
  tolerability: well tolerated
[8]; human, in vivo
  adverse events during the first month: no adverse events
  initiation of pain after the application: 6 to 20 h
  keratitis after in-office, daytime applications: no development of keratitis
  keratitis in bedtime applications: without a single occurrence of keratitis
  subjects who developed keratitis or keratitis related symptoms: four
  time from in-office morning application to significant pain: About 7 hours
[8]; one patient, 1 wt. %, first month, twice weekly at home before bedtime
  total OSDI, VAS and SPEED: significant improvement
[9]
  safe concentration for use in humans: 0.5%
